Holding throughout (experiment): NCI-60 cell line screen, 48 h
Assay [1] deals with 786-0 renal.
In assay [2] the test system is BT-549 breast.
Assay [3] has as its system CAKI-1 renal.
Assay [4] concerns EKVX NSCLC.
The subject of assay [5] is IGROV1 ovarian.
The subject of assay [6] is MDA-MB-231 breast.
For assay [7], the system named is RXF 393 renal.
For assay [8], the system named is SF-268 CNS.
Assay [9] concerns SF-539 CNS.
Assay [10] relates to SNB-75 CNS.

Where “and” joins values, the source holds several entries; their conditions need not be identical. Identical values can stand only once.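 Assay format: 96-well plates, 48-hour exposure. Here, GI50 denotes the concentration required for 50% inhibition of growth. TGI denotes the concentration required for complete inhibition of growth.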

`CC[C@@H](C(=O)[C@@H](C)[C@@H](O)[C@H](C)[C@@H]1O[C@@H]([C@@H](CC)C(=O)O)CC[C@@H]1C)[C@H]1OC2(C=C[C@@H](O)[C@]3(CC[C@@](C)([C@H]4CC[C@](O)(CC)[C@H](C)O4)O3)O2)[C@H](C)C[C@@H]1C` (stereo partly specified): the GI50 in assay [1] is 0.589 µM; in assay [2] it was 0.233 µM; in [3] it was 1.2 µM; in [4], 0.22 µM; in assay [5], 1.84 µM; in [6], 0.239 µM. Moreover, the GI50 in assay [7] is 0.0485 µM; in [8], 1.7 µM; in [9], 0.434 µM; in assay [10] it was 1.2 µM. The TGI was 12.4 µM in [1]; 2.97 µM in [2]; greater than 50 µM in assay [3]; greater than 32 µM in [4]; greater than 50 µM in assay [5]; 17.1 µM in assay [6]. Also, the TGI was 1.85 µM in assay [7], 26.3 µM in assay [8], 8.85 µM in [9] and greater than 24.2 µM in assay [10].
In the case of `Cc1nc(/N=C(\N)NC(=O)Nc2ccccc2Cl)sc1C`, the GI50 was 0.639 µM in assay [1]; 0.637 µM in assay [2]; 0.435 µM in assay [3]; 0.626 µM in assay [4]; 0.528 µM in [5]; 1.06 µM in assay [6]. Further, the GI50 in [7] was 0.399 µM; in [8], 1.35 µM; in assay [9], 0.413 µM; in [10], 0.226 µM. For the same compound, the TGI is 3.25 µM in assay [1]; 10.3 µM in assay [2]; 9.41 µM in assay [3]; greater than 100 µM in assay [4]; greater than 100 µM in [5]; 50.3 µM in assay [6]. In addition, the TGI in assay [7] was 2.11 µM; in assay [8] it was greater than 100 µM; in [9] it was 8.34 µM; in assay [10] it was 0.91 µM.
`O=C1c2ccccc2-c2c1c1ccccc1c(=O)n2CCCN1CCN(CCCn2c3c(c4ccccc4c2=O)C(=O)c2ccccc2-3)CC1`: the GI50 in assay [1] was 2.22 µM; in assay [2] it was greater than 75.2 µM; in assay [3] it was greater than 100 µM; in [4] it was greater than 100 µM; in [5], greater than 35 µM; in [6], 2.41 µM. Further, the GI50 was 46.2 µM in assay [7], 25 µM in assay [8], greater than 70.6 µM in [9] and greater than 47.7 µM in assay [10]. In addition, the TGI in [1] was greater than 32 µM; in assay [2], greater than 100 µM; in assay [3], greater than 100 µM; in assay [4], greater than 100 µM; in [5], greater than 100 µM; in [6], 27.4 µM. Also, the TGI in [7] was greater than 100 µM; in assay [8], greater than 100 µM; in assay [9], greater than 100 µM; in assay [10], greater than 84 µM.
`CC(=O)OC[C@]12CC[C@@H]([C@@H](C)C(N)=O)[C@@H]1[C@H]1CC[C@@H]3[C@@]4(C)CC[C@H](OC(C)=O)C(C)(C)[C@@H]4CC[C@@]3(C)[C@]1(C)CC2`: the GI50 in assay [1] is 10.9 µM; in [2] it was 8.17 µM; in assay [3], 3.24 µM; in assay [4] it was 9.27 µM; in assay [5], 13.2 µM; in assay [6], 11.8 µM. Further, the GI50 in assay [7] was 4.28 µM; in assay [8] it was 6.95 µM; in [9] it was 5.52 µM; in assay [10], 5.59 µM. Further, the TGI in assay [1] worked out at 26.3 µM; in assay [2] it was 22.6 µM; in [3], 15.4 µM; in assay [4], 22.5 µM; in assay [5], 30 µM; in assay [6], 30.8 µM. Further, the TGI in assay [7] came to 16.3 µM; in assay [8], 22.3 µM; in [9], 17.7 µM; in assay [10] it was 44.6 µM.
On to `COc1c(CNC(=O)CCl)cc2[nH]c(C)cc2c1CNC(=O)CCl`, for which the GI50 in [1] was 3.8 µM; in assay [2], 17 µM; in assay [3], 6.73 µM; in assay [4], 11 µM; in [5], 3.49 µM; in assay [6] it was 6.12 µM. Moreover, the GI50 in assay [7] is 3.5 µM; in assay [8], 3.44 µM; in assay [9], 7.09 µM; in assay [10], 6.43 µM. Moreover, the TGI is 15.4 µM in assay [1]; 35.2 µM in assay [2]; 37 µM in [3]; 27.5 µM in [4]; greater than 100 µM in assay [5]; 41.3 µM in assay [6]. Further, the TGI amounted to 14.1 µM in assay [7], 21.7 µM in [8], 29.8 µM in assay [9] and 33 µM in assay [10].
For the compound `CCN(CC)C(=S)SC1CCOP(=O)(N(CCCl)CCCl)N1C` (stereo unspecified), the TGI in [1] is greater than 80.1 µM; in [2], greater than 100 µM; in [3], greater than 86.8 µM; in assay [4], greater than 96.4 µM; in assay [5] it was greater than 53.1 µM; in assay [6] it was greater than 100 µM. Further, the TGI in assay [7] was 76.1 µM; in assay [8], 98.6 µM; in assay [9], 56.6 µM; in [10] it was greater than 100 µM.
As for `CCc1c(Cl)nc(Cl)nc1Cl`, the TGI is 3.71 µM in assay [1]; 0.133 µM in [2]; 0.404 µM in assay [3]; 1.94 µM in assay [4]; 4.44 µM in assay [5]; 2.81 µM in assay [6]. The TGI came out at 0.968 µM in [7], 2.03 µM in assay [8], 1.77 µM in assay [9] and 4.21 µM in [10].
For the compound `COc1cc2c3c(n(C)c(=O)c2cc1OC)-c1cc2c(cc1/C3=C\CCCBr)OCO2`, the GI50 is 8.5 µM in assay [1]; greater than 20.5 µM in [2]; 48.1 µM in assay [3]; 15.6 µM in [4]; 28.5 µM in assay [5]; 9.16 µM in assay [6]. Further, the GI50 in assay [7] was 6.35 µM; in assay [8], 16.1 µM; in assay [9] it was 10.3 µM; in [10], 0.398 µM. Also, the TGI in assay [1] was greater than 40.2 µM; in [2], greater than 51.9 µM; in assay [3], greater than 100 µM; in [4] it was greater than 62.5 µM; in [5] it was greater than 100 µM; in [6], greater than 45.3 µM. Further, the TGI is 16.8 µM in [7], greater than 54.8 µM in assay [8], greater than 41.6 µM in assay [9] and 12.8 µM in assay [10].
Turning to `COc1cc([C@@H]2c3cc4c(cc3[C@H](O)[C@H]3COC(=O)[C@H]23)OCO4)cc(OC)c1OC`, the GI50 is less than 0.005 µM in assay [1]; less than 0.01 µM in assay [2]; less than 0.005 µM in [3]; less than 0.005 µM in assay [5]; less than 0.01 µM in assay [6]; less than 0.01 µM in assay [7]. For the same compound, the results for the GI50 in assay [8], in [9] and in assay [10] were less than 0.01 µM, less than 0.01 µM and less than 0.005 µM, respectively. Besides, the TGI in assay [1] is 1.08 µM and 0.5 µM and < 0.215 µM; in assay [4] it was > 100 µM and 50 µM; in assay [8], > 63.4 µM and 50 µM and > 39.2 µM; in assay [9], less than 0.005 µM.
For `C=C1CCC2C3(C)COC(c4ccc(SC)cc4)OC3CCC2(C)C1C/C=C1/C(=O)OCC1O` (stereo unspecified), the GI50 was 6.7 µM in assay [1]; 4.38 µM in assay [2]; 11.2 µM in assay [3]; 7.67 µM in [4]; 4.3 µM in assay [5]; 5.52 µM in assay [6]. For the same compound, the GI50 in assay [7] was 4.51 µM; in assay [8], 6.8 µM; in assay [9] it was 4.75 µM; in [10], 10.1 µM. For the same compound, the TGI in [1] was 19.2 µM; in [2], 20.9 µM; in [3] it was 28.2 µM; in [4] it was 26.9 µM; in [5] it was 15.9 µM; in [6], 16.5 µM. For the same compound, the TGI was found to be 15.6 µM in assay [7], 19.9 µM in assay [8], 9.38 µM in assay [9] and 21.7 µM in [10].
For `NCC1OC(OC2C(CO)OC(OC3C(O)C(N)CC(N)C3OC3OC(CO)C(O)C(O)C3N)C2O)C(N)C(O)C1O` (stereo unspecified), the GI50 in assay [1], in assay [2], in assay [3], in assay [4], in [5] and in assay [6] was greater than 50 µg/mL throughout. Besides, the GI50 in assay [7], in [8], in assay [9] and in assay [10] was greater than 50 µg/mL in each case. Besides, the TGI in assay [1], in assay [2], in assay [3], in [4], in assay [5] and in [6] was greater than 50 µg/mL throughout. Besides, the TGI in assay [7], in assay [8], in assay [9] and in assay [10] was greater than 50 µg/mL in each case.
Consider `OC(COc1cccc2ccccc12)CN1CCN(c2ccccc2)CC1` (stereo unspecified), for which the GI50 in assay [1] was 17.4 µM; in assay [2], 17.9 µM; in [3], 12.6 µM; in assay [4], 15.4 µM; in assay [5], 14.6 µM; in [6], 15.8 µM. Moreover, the GI50 is 18.2 µM in [7], 16.4 µM in [8], 18.1 µM in [9] and 13.7 µM in assay [10]. The TGI in [1] came to 32.2 µM; in assay [2] it was 32.2 µM; in [3], 27.2 µM; in assay [4], 32.3 µM; in [5] it was 29.5 µM; in assay [6], 31.8 µM. For the same compound, the TGI in assay [7] turned out to be 32.9 µM; in [8], 31.3 µM; in assay [9], 33.9 µM; in assay [10], 27.2 µM.
For `COC(=O)c1ccc([N+](=O)[O-])c(O)c1`, the TGI in [1], in [2], in assay [3], in assay [4], in [5] and in [6] was greater than 100 µM throughout. Besides, the TGI in assay [7], in assay [8], in assay [9] and in assay [10] was greater than 100 µM each time.
Take `Cc1cc(-c2nc(-c3ccc(OC(F)(F)F)cc3)no2)nn1Cc1ccnc(N2CCN(C3CC3)CC2)c1`: the GI50 is 13.5 µM in assay [1]; 6.3 µM in [3]; less than 0.01 µM in assay [4]; greater than 50 µM in assay [5]; 12.6 µM in assay [6]; greater than 27.9 µM in assay [7]. The GI50 in assay [8] is greater than 42.7 µM; in assay [9], greater than 33 µM; in [10] it was greater than 59.6 µM. In addition, the TGI was greater than 100 µM in assay [1]; greater than 52.6 µM in assay [2]; greater than 100 µM in [3]; greater than 51.6 µM in [4]; greater than 100 µM in assay [5]; greater than 78.7 µM in [6]. In addition, the TGI in assay [7] is greater than 75.6 µM; in assay [8], greater than 100 µM; in assay [9], greater than 63.8 µM; in assay [10], greater than 100 µM.
In the case of `CC1=C(/C=C/C(C)=C/C=C/C(C)=C/C(=O)Nc2ccc(O)cc2)C(C)(C)CCC1`, the GI50 in assay [1] was 1.72 µM; in [2], 0.826 µM; in assay [3], 3.87 µM; in assay [4], 5.14 µM; in assay [5], 1.19 µM; in assay [6], 1.79 µM. Besides, the GI50 in assay [8] is 1.52 µM; in assay [9] it was 0.355 µM; in [10] it was 1.81 µM. Besides, the TGI in [1] was 4.36 µM and 10.9 µM; in assay [2], 7.44 µM and 18.6 µM; in [3], 15.8 µM and 13.6 µM; in assay [4], 20.7 µM and 25.2 µM; in assay [5], 3.68 µM and 4.91 µM; in [6], 10.1 µM and 6.06 µM. Besides, the TGI in [7] is 6.5 µM and 5.43 µM; in assay [8], 3.94 µM and 14.2 µM; in [9], 1.73 µM and 3.39 µM; in assay [10], 5.85 µM and 23.2 µM.
